The compounds below were run on NL-RLuc virus (assay: Inhibition of HIV replication (NL-RLuc luciferase reporter virus in MT-2 cells)). Conditions: Human immunodeficiency virus 1, MT2, 120 h, read-out: Activity.
Type: cell-based
From the text: Inhibition of HIV Replication:
A recombinant NL-RLuc proviral clone was constructed in which a section of the nef gene from NL4-3 was replaced with the Renilla Luciferase gene. This virus is fully infectious and can undergo multiple cycles of replication in cell culture. In addition, the luciferous reporter provides a simple and easy method for quantitating the extent of virus growth and consequently, the antiviral activity of test compounds. The plasmid pNLRLuc contains the proviral NL-Rluc DNA cloned into pUC 18 at the PvuII site. The NL-RLuc virus was prepared by transfection of 293T cells with the plasmid pNLRLuc. Transfections were performed using the LipofectAMINE PLUS kit from Invitrogen (Carlsbad, Calif.) according to the manufacturer and the virus generated was titered in MT-2 cells. For susceptibility analyses, the titrated virus was used to infect MT-2 cells in the presence of compound, and after 5 days of incubation, cells were processed and quantitated for virus growth by the amount of expressed luciferase. Assay media was RPMI 1640 supplemented with 10% heat inactivated fetal bovine serum (FBS), 100 units/ml penicillin G/100 units/ml streptomycin, 10 mM HEPES buffer pH 7.55 and 2 mM L-glutamine. The results from at least 2 experiments were used to calculate the EC50 values. Luciferase was quantitated using the Dual Luciferase kit from Promega (Madison, Wis.). Susceptibility of viruses to compounds was determined by incubation in the presence of serial dilutions of the compound. The 50% effective concentration (EC50) was calculated by using the exponential form of the median effect equation where (Fa)=1/[1+(ED50/drug conc.)^m](Johnson V A, Byington R T. Infectivity Assay. In Techniques in HIV Research. ed. Aldovini A, Walker B D. 71-76. New York: Stockton Press.1990). Activity equal to A refers to a compound having an EC50≤100 nM, while B and C denote compounds having an EC50 between 100 nM and 1 uM (B) or >1 uM (C).

Row | SMILES | EC50
1 | Cc1nc(C)c([C@H](OC(C)(C)C)C(=O)O)c(N2CC[C@H]3CCCC[C@@H]3C2)c1-c1ccc(OCCc2ccc(F)cc2)cc1 [Example 12, (S)-2-(tert-Butoxy)-2-(5-(4-(4-fluorophenethoxy)phenyl)-2,6-dimethyl-4-((4aR,8aS)-octahydroisoquinolin-2(H)-yl)pyridin-3-yl)acetic acid] | < 0.1 µM
2 | Cc1nc(C)c([C@H](OC(C)(C)C)C(=O)O)c(N2CCC3(CC2)CC3(F)F)c1-c1ccc(OCCc2ccc(F)cc2)cc1 [Example 70, (S)-2-(tert-Butoxy)-2-(4-(1,1-difluoro-6-azaspiro[2.5]octan-6-yl)-5-(4-(4-fluorophenethoxy)phenyl)-2,6-dimethylpyridin-3-yl)acetic acid] | < 0.1 µM
3 | Cc1nc(CF)c(-c2ccc(OCCc3ccc(F)cc3)cc2)c(N2CCC3(CCC3)CC2)c1[C@H](OC(C)(C)C)C(=O)O [Example 40, (S)-2-(tert-Butoxy)-2-(6-(fluoromethyl)-5-(4-(4-fluorophenethoxy)phenyl)-2-methyl-4-(7-azaspiro[3.5]nonan-7-yl)pyridin-3-yl)acetic acid] | < 0.1 µM
4 | Cc1nc(C)c([C@H](OC(C)(C)C)C(=O)O)c(N2CCC3(CCOC3)CC2)c1-c1ccc(OCCc2ccc(F)cc2)cc1 [Example 67, (S)-2-(tert-Butoxy)-2-(5-(4-(4-fluorophenethoxy)phenyl)-2,6-dimethyl-4-(2-oxa-8-azaspiro[4.5]decan-8-yl)pyridin-3-yl)acetic acid] | < 0.1 µM
5 | Cc1nc(CO)c(-c2ccc(OCCc3ccc(F)cc3)cc2)c(N2CCC3(CCC3)CC2)c1[C@H](OC(C)(C)C)C(=O)O [Example 38, (S)-2-(tert-Butoxy)-2-(5-(4-(4-fluorophenethoxy)phenyl)-6-(hydroxymethyl)-2-methyl-4-(7-azaspiro[3.5]nonan-7-yl)pyridin-3-yl)acetic acid] | < 0.1 µM
6 | Cc1nc(C)c([C@H](OC(C)(C)C)C(=O)O)c(N2CCC3(CCCC3)CC2)c1-c1ccc(OCCc2ccc(F)cc2)cc1 [Example 20, (S)-2-(tert-Butoxy)-2-(5-(4-(4-fluorophenethoxy)phenyl)-2,6-dimethyl-4-(8-azaspiro[4.5]decan-8-yl)pyridin-3-yl)acetic acid] | < 0.1 µM
7 | Cc1nc(CN2CCOCC2)c(-c2ccc(OCCc3ccc(F)cc3)cc2)c(N2CCC3(CCC3)CC2)c1[C@H](OC(C)(C)C)C(=O)O [Example 54, (S)-2-(tert-Butoxy)-2-(5-(4-(4-fluorophenethoxy)phenyl)-2-methyl-6-(morpholinomethyl)-4-(7-azaspiro[3.5]nonan-7-yl)pyridin-3-yl)acetic acid] | < 0.1 µM
8 | Cc1nc(COCC2COC2)c(-c2ccc(OCCc3ccc(F)cc3)cc2)c(N2CCC3(CCC3)CC2)c1[C@H](OC(C)(C)C)C(=O)O [Example 48, (S)-2-(tert-Butoxy)-2-(5-(4-(4-fluorophenethoxy)phenyl)-2-methyl-6-((oxetan-3-ylmethoxy)methyl)-4-(7-azaspiro[3.5]nonan-7-yl)pyridin-3-yl)acetic acid] | < 0.1 µM
9 | Cc1nc(C)c([C@H](OC(C)(C)C)C(=O)O)c(N2CCC3(CCCC3)CC2)c1-c1ccc(C(=O)NCc2ccccc2)c(F)c1 [Example 24, (S)-2-(5-(4-(Benzylcarbamoyl)-3-fluorophenyl)-2,6-dimethyl-4-(8-azaspiro[4.5]decan-8-yl)pyridin-3-yl)-2-(tert-butoxy)acetic acid] | < 0.1 µM
10 | Cc1nc(C)c([C@H](OC(C)(C)C)C(=O)O)c(N2CC3CC3C2)c1-c1ccc(OCCc2ccc(F)cc2)cc1 (stereo partly drawn) [Example 6, (2S)-2-(4-(3-Azabicyclo[3.1.0]hexan-3-yl)-5-(4-(4-fluorophenethoxy)phenyl)-2,6-dimethylpyridin-3-yl)-2-(tert-butoxy)acetic acid] | 0.1 to 1 µM
11 | Cc1nc(CN2CCC3(CCC3)CC2)c(-c2ccc(OCCc3ccc(F)cc3)cc2)c(N2CCC3(CCC3)CC2)c1[C@H](OC(C)(C)C)C(=O)O [Example 57, (S)-2-(6-(7-Azaspiro[3.5]nonan-7-ylmethyl)-5-(4-(4-fluorophenethoxy)phenyl)-2-methyl-4-(7-azaspiro[3.5]nonan-7-yl)pyridin-3-yl)-2-(tert-butoxy)acetic acid] | < 0.1 µM
12 | Cc1nc(C)c([C@H](OC(C)(C)C)C(=O)O)c(N2CCC3(CCCCC3)CC2)c1-c1ccc(C(=O)NCc2ccccc2)cc1 [Example 61, (S)-2-(5-(4-(Benzylcarbamoyl)phenyl)-2,6-dimethyl-4-(3-azaspiro[5.5]undecan-3-yl)pyridin-3-yl)-2-(tert-butoxy)acetic acid] | < 0.1 µM
13 | Cc1nc(C)c([C@H](OC(C)(C)C)C(=O)O)c(N2CCC3(CCCCC3)C2)c1-c1ccc(C(=O)NCc2ccccc2)cc1 [Example 63, (S)-2-(5-(4-(Benzylcarbamoyl)phenyl)-2,6-dimethyl-4-(2-azaspiro[4.5]decan-2-yl)pyridin-3-yl)-2-(tert-butoxy)acetic acid] | < 0.1 µM
14 | CCOCc1nc(C)c([C@H](OC(C)(C)C)C(=O)O)c(N2CCC3(CCC3)CC2)c1-c1ccc(OCCc2ccc(F)cc2)cc1 [Example 41, (S)-2-(tert-Butoxy)-2-(6-(ethoxymethyl)-5-(4-(4-fluorophenethoxy)phenyl)-2-methyl-4-(7-azaspiro[3.5]nonan-7-yl)pyridin-3-yl)acetic acid] | < 0.1 µM
15 | Cc1nc(C)c([C@H](OC(C)(C)C)C(=O)O)c(N2CCCC3(CCCC3)C2)c1-c1ccc(OCCc2ccc(F)cc2)cc1 [Example 18, (S)-2-(tert-Butoxy)-2-(5-(4-(4-fluorophenethoxy)phenyl)-2,6-dimethyl-4-(7-azaspiro[4.5]decan-7-yl)pyridin-3-yl)acetic acid] | 0.1 to 1 µM
16 | CCOCCOCc1nc(C)c([C@H](OC(C)(C)C)C(=O)O)c(N2CCC3(CCC3)CC2)c1-c1ccc(OCCc2ccc(F)cc2)cc1 [Example 49, (S)-2-(tert-Butoxy)-2-(6-((2-ethoxyethoxy)methyl)-5-(4-(4-fluoro-phenethoxy)phenyl)-2-methyl-4-(7-azaspiro[3.5]nonan-7-yl)pyridin-3-yl)acetic acid] | < 0.1 µM
17 | Cc1nc(CN2CCCCC2)c(-c2ccc(OCCc3ccc(F)cc3)cc2)c(N2CCC3(CCC3)CC2)c1[C@H](OC(C)(C)C)C(=O)O [Example 53, (S)-2-(tert-Butoxy)-2-(5-(4-(4-fluorophenethoxy)phenyl)-2-methyl-6-(piperidin-1-ylmethyl)-4-(7-azaspiro[3.5]nonan-7-yl)pyridin-3-yl)acetic acid] | < 0.1 µM
18 | Cc1nc(CN(C)C2CCOCC2)c(-c2ccc(OCCc3ccc(F)cc3)cc2)c(N2CCC3(CCC3)CC2)c1[C@H](OC(C)(C)C)C(=O)O [Example 50, (S)-2-(tert-Butoxy)-2-(5-(4-(4-fluorophenethoxy)phenyl)-2-methyl-6-((methyl(tetrahydro-2H-pyran-4-yl)amino)methyl)-4-(7-azaspiro[3.5]nonan-7-yl)pyridin-3-yl)acetic acid] | < 0.1 µM
19 | Cc1nc(C)c([C@H](OC(C)(C)C)C(=O)O)c(N2CCC3(CCC3)CC2)c1-c1ccc(OCC(C)(C)c2ccc(F)cc2)cc1 [Example 28, (S)-2-(tert-butoxy)-2-(5-(4-(2-(4-fluorophenyl)-2-methylpropoxy)phenyl)-2,6-dimethyl-4-(7-azaspiro[3.5]nonan-7-yl)pyridin-3-yl)acetic acid] | < 0.1 µM
20 | Cc1nc(C)c([C@H](OC(C)(C)C)C(=O)O)c(N2CC3CCCC3C2)c1-c1ccc(OCCc2ccc(F)cc2)cc1 (stereo partly drawn) [Example 3] | < 0.1 µM
21 | Cc1nc(C)c([C@H](OC(C)(C)C)C(=O)O)c(N2CCC3(CCCC3)CC2)c1-c1ccc(C(=O)NCc2ccccc2)cc1 [Example 21, (S)-2-(5-(4-(Benzylcarbamoyl)phenyl)-2,6-dimethyl-4-(8-azaspiro[4.5]decan-8-yl)pyridin-3-yl)-2-(tert-butoxy)acetic acid] | < 0.1 µM

Same assay, conditions: Human immunodeficiency virus 1, MT2, 120 h, read-out: EC50 μM

Row | SMILES | EC50
22 | Cc1nc(C)c([C@H](OC(C)(C)C)C(=O)O)c(N2CCc3ccccc3C2)c1-c1ccc(OCCc2ccc(F)cc2)cc1 [Example 2, (S)-2-(tert-Butoxy)-2-(4-(3,4-dihydroisoquinolin-2(1H)-yl)-5-(4-(4-fluorophenethoxy)phenyl)-2,6-dimethylpyridin-3-yl)acetic acid] | 0.036 µM
23 | Cc1nc(C)c([C@H](OC(C)(C)C)C(=O)O)c(N2CCCC3(CCCC3)C2)c1-c1ccc(OCCc2ccc(F)cc2)cc1 [Example 18, (S)-2-(tert-Butoxy)-2-(5-(4-(4-fluorophenethoxy)phenyl)-2,6-dimethyl-4-(7-azaspiro[4.5]decan-7-yl)pyridin-3-yl)acetic acid] | 0.475 µM
24 | CCOCCOCc1nc(C)c([C@H](OC(C)(C)C)C(=O)O)c(N2CCC3(CCC3)CC2)c1-c1ccc(OCCc2ccc(F)cc2)cc1 [Example 49, (S)-2-(tert-Butoxy)-2-(6-((2-ethoxyethoxy)methyl)-5-(4-(4-fluoro-phenethoxy)phenyl)-2-methyl-4-(7-azaspiro[3.5]nonan-7-yl)pyridin-3-yl)acetic acid] | 0.006 µM

From patent US20190010139A1 (priority 2015, published 2019)
